The test has as its target T1, human Nav1.8 (hNav1.8) ion channel (Homo sapiens, UniProt Q9Y5Y9).
T1 construct: expressed in transfected cells
Briefly: Inhibition of human Nav1.8 stably expressed in SH-SY-5Y cells (membrane potential dye fluorescence assay). The format is cell-based. Conditions: SH-SY-5Y hNav1.8 cells, inhibition of membrane depolarisation, FLIPR membrane potential dye, 250 nM TTX, test concentration range 100 μM-0.05 μM, read-out: IC50. The protocol:
Inhibition of Human Nav1.8 Stably Expressed in SH-SY-5Y Cells
A SH-SY-5Y neuroblastoma cell line stably expressing the human […] (hNav1.8) ion channel was constructed. This cell line has been used to develop a medium to high throughput assay for determining the ability of test compounds to inhibit membrane depolarisation mediated via the hNav1.8 channel.
SH-SY-5Y hNav1.8 are grown in adherent monolayer culture using 50:50 Ham's F-12/EMEM tissue culture medium supplemented with 15% (v/v) foetal bovine serum; 2 mM L-glutamine, 1% NEAA and 600 μg·ml^−1 Geneticin sulphate. Cells are removed from the tissue culture flask using trypsin/EDTA and re-plated into black walled, clear bottom 96-well assay plates at 50,000 cells·well^−1 24 hours prior to assay.
On the day of assay the cell assay plates are washed to remove cell culture medium using a sodium free assay buffer (145 mM tetramethyl ammonium chloride; 2 mM calcium chloride; 0.8 mM magnesium chloride hexahydrate; 10 mM HEPES; 10 mM glucose; 5 mM potassium chloride, pH 7.4). Fluorescent membrane potential dye solution (FLIPR™ membrane potential dye, Molecular Devices Corporation), containing 10 μM of a pyrethroid to prevent channel inactivation and 250 nM tetrodotoxin (TTX) to reduce interference from TTX-sensitive sodium channels present in the cell line. Test compound, initially dissolved in dimethyl sulfoxide but further diluted in sodium free buffer, is added to achieve the final test concentration range of 100 μM-0.05 μM.
Cell plates are incubated for 30 minutes at room temperature to allow equilibration of dye and test compound. Plates are then transferred to a fluorescence plate reader for fluorescence measurement using an excitation wavelength of 530 nm whilst measuring fluorescence emission at 565 nm. Baseline fluorescence levels are first determined before the addition of a sodium containing buffer (220 mM sodium chloride; 2 mM calcium chloride; 0.8 mM magnesium chloride hexahydrate; […]; 10 mM glucose; 5 mM potassium chloride. pH 7.4) to cause membrane depolarisation in those cells where channel block has not been effected (final sodium concentration=72.5 mM). Membrane depolarisation is registered by an increase in fluorescence emission at 565 nm.
The change in fluorescence seen in each test well upon the addition of sodium containing buffer is calculated relative to the baseline fluorescence for that well. This figure is then used for calculating the IC50 for each test compound.

The mark [1] stands for this setting: Table 2 (compound numbers of the list in the description).

Where two headings read alike, the source gives them in different places.

T1 sequence (Q9Y5Y9 whole entry): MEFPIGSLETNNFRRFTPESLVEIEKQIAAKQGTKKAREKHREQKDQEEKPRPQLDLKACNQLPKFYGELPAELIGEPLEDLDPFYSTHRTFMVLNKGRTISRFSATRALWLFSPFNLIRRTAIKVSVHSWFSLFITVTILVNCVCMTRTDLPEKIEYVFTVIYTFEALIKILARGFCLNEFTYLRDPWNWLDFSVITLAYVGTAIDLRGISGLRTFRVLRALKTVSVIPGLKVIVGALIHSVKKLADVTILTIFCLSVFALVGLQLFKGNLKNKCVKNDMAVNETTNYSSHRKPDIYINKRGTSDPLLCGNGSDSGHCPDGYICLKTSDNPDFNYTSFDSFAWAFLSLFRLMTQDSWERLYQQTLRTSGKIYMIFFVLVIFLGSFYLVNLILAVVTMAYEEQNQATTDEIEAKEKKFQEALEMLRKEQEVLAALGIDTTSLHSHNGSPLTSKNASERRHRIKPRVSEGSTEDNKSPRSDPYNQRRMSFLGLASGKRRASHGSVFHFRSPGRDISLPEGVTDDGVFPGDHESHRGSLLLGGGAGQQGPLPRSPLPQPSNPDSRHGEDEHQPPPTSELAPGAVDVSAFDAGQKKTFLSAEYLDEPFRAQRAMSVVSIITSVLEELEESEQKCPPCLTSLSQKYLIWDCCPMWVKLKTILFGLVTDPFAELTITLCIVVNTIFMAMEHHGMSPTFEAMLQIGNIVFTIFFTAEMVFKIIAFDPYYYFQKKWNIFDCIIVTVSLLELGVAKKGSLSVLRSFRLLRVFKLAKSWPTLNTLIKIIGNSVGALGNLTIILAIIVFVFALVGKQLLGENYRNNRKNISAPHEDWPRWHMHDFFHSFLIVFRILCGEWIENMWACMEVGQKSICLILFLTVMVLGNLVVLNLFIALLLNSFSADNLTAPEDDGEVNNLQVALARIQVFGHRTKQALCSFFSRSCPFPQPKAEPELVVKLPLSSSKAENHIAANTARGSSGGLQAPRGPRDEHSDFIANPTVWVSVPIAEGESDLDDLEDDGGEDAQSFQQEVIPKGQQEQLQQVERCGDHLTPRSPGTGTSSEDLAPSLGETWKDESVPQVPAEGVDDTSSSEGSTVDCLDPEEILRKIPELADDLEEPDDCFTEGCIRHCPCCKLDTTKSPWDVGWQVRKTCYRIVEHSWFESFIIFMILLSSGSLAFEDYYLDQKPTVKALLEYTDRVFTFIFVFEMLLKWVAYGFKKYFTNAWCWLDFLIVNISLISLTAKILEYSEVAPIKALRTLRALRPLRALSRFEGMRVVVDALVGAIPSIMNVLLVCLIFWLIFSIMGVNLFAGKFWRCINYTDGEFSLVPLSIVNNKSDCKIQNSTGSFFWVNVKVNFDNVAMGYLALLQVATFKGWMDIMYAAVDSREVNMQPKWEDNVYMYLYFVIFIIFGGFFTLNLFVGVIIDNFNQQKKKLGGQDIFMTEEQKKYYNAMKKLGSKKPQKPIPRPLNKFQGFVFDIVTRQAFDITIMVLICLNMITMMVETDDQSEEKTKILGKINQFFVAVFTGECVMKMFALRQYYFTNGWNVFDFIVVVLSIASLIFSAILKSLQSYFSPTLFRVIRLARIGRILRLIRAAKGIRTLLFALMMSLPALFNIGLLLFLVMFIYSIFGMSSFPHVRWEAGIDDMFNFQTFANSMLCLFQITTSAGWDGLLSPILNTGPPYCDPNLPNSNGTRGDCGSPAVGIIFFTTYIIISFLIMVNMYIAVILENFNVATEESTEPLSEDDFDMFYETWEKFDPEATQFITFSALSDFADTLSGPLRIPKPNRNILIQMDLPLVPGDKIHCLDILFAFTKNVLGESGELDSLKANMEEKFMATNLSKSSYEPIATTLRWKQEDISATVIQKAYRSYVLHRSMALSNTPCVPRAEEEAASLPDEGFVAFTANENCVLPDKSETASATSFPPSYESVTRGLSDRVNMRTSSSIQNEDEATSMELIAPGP

`COc1cccc2c1CN(C(=O)CN(CC(=O)N1CCc3cccc(OC)c3C1)CC(c1ccccc1)c1ccccc1)CC2` [Example 36]: the IC50 (as a rule, the concentration at which inhibition is half-maximal) (Table 1) was 2800 nM.

`O=C(CN1CCc2ccccc2C1)N(Cc1ccccc1)c1ccccc1` [Example 17, N-Benzyl-2-(3,4-dihydro-1H-isoquinolin-2-yl)-N-phenyl-acetamide]: the IC50 (Table 1) turned out to be 1250 nM.

Take `Nc1cccc2c1CN(CCC(=O)NCCC(c1ccccc1)c1ccccc1)CC2` [Compound 127, 3-(8-Amino-3,4-dihydro-1H-isoquinolin-2-yl)-N-(3,3-diphenyl-propyl)-propionamide]: the IC50 under setting [1] was 650 nM.

As for `O=C(CN1CCc2cccc(O)c2C1)N(c1ccccc1)c1ccccc1` [Compound 149, 2-(8-Hydroxy-3,4-dihydro-1H-isoquinolin-2-yl)-N,N-diphenyl-acetamide], the IC50 under setting [1] came out at 9090 nM.

For the molecule `O=C(CN1CCc2ccccc2C1)N1CCN(C(c2ccc(F)cc2)c2ccc(F)cc2)CC1` [Example 65, 1-{4-[Bis-(4-fluoro-phenyl)-methyl]-piperazin-1-yl}-2-(3,4-dihydro-1H-isoquinolin-2-yl)-ethanone], for the setting “Table 1”, the IC50 is 5640 nM.

With `O=C(CN1CCc2ccccc2C1)NCCC(c1ccccc1)c1ccccc1` [Example 18, 2-(3,4-Dihydro-1H-isoquinolin-2yl)-N-(3,3-diphenyl-propyl)-acetamide], the IC50 (Table 1) came to 680 nM.

Turning to `COc1cccc2c1CN(CC(=O)N1c3ccccc3OCC1c1ccc(NC(C)=O)cc1)CC2` (stereo not shown) [Compound 214, N-(4-{4-[2-(8-Methoxy-3,4-dihydro-1H-isoquinolin-2-yl)-acetyl]-3,4-dihydro-2H-benzo[1,4]oxazin-3-yl}-phenyl)-acetamide], under setting [1], the IC50 is 6360 nM.

Consider `O=C(CN1CCc2cccc(O)c2C1)N1c2ccccc2Sc2ccc(C(F)(F)F)cc21` [Compound 145, 2-(8-Hydroxy-3,4-dihydro-1H-isoquinolin-2-yl)-1-(2-trifluoromethyl-phenothiazin-10-yl)-ethanone], for which the IC50 under setting [1] worked out at 2630 nM.

Regarding `COc1cccc2c1CN(CC(=O)N1c3ccccc3Sc3ccc(Cl)cc31)CC2` [Compound 142, 1-(2-Chloro-phenothiazin-10-yl)-2-(8-methoxy-3,4-dihydro-1H-isoquinolin-2-yl)-ethanone], the IC50 under setting [1] turned out to be 2090 nM.

Regarding `CS(=O)(=O)N(c1cccc2c1CN(CC(=O)N1c3ccccc3Oc3ccccc31)CC2)S(C)(=O)=O` [Compound 197, N-Methanesulfonyl-N-[2-(2-oxo-2-phenoxazin-10-yl-ethyl)-1,2,3,4-tetrahydro-isoquinolin-8-yl]-methanesulfonamide], the IC50 under setting [1] was 3830 nM.

`COc1cccc2c1CN(CC(=O)NN(c1ccccc1)c1ccccc1)CC2` [Compound 168, (8-Methoxy-3,4-dihydro-1H-isoquinolin-2-yl)-acetic acid N′,N′-diphenyl-hydrazide]: under setting [1], the IC50 was 2010 nM.

Take `Nc1cccc2c1CN(CCCC(c1ccc(F)cc1)c1ccc(F)cc1)CC2` [Compound 110, 2-[4,4-Bis-(4-fluoro-phenyl)-butyl]-1,2,3,4-tetrahydro-isoquinolin-8-ylamine]: the IC50 under setting [1] is 480 nM.

With `Nc1cccc2c1CN(CC(=O)NCCC(c1ccccc1)c1ccccc1)C2` [Compound 99, 2-(4-Amino-1,3-dihydro-isoindol-2-yl)-N-(3,3-diphenyl-propyl)-acetamide], the IC50 under setting [1] is 2430 nM.

Consider `Cc1cc(C(C)(CCCN2CCc3cccc(O)c3C2)c2cc(C)c(O)c(C)c2)cc(C)c1O` [Example 97, 2-[4,4-Bis-(4-hydroxy-3,5-dimethyl-phenyl)-pentyl]-1,2,3,4-tetrahydroisoquinolin-8-ol], for which the IC50 (Table 1) is 1060 nM.

In the case of `O=C(CN1CCc2cccc(O)c2C1)NC1c2ccccc2-c2ccccc21` [Example 26, N-(9H-fluoren-9-yl)-2-(8-hydroxy-3,4-dihydro-1H-isoquinolin-2-yl)acetamide], the IC50 (Table 1) is 670 nM.

`COc1ccc(N(C(=O)CN2CCc3cccc(OC)c3C2)c2ccc(OC)cc2)cc1` [Compound 182, 2-(8-Methoxy-3,4-dihydro-1H-isoquinolin-2-yl)-N,N-bis-(4-methoxy-phenyl)-acetamide]: under setting [1], the IC50 amounted to 2140 nM.

As to `COc1ccc(N(C(=O)CN2CCc3cccc(O)c3C2)c2ccc(OC)cc2)cc1` [Compound 183, 2-(8-Hydroxy-3,4-dihydro-1H-isoquinolin-2-yl)-N,N-bis-(4-methoxy-phenyl)-acetamide], the IC50 under setting [1] turned out to be 2260 nM.

Consider `COc1cccc2c1CN(CCNC(=O)N1c3ccccc3Oc3ccccc31)CC2` [Compound 164, Phenoxazine-10-carboxylic acid [2-(8-methoxy-3,4-dihydro-1H-isoquinolin-2-yl)-ethyl]-amide], for which the IC50 under setting [1] stood at 710 nM.

Take `COc1cccc2c1CN(C(C)C(=O)NCCC(c1ccccc1)c1ccccc1)CC2` (stereo not shown) [Example 77, N-(3,3-Diphenyl-propyl)-2-(8-methoxy-3,4-dihydro-1H-isoquinolin-2-yl)-propionamide]: the IC50 (Table 1) amounted to 660 nM.

Consider `O=C(CN1CCc2cccc(O)c2C1)N1c2ccccc2OCC1c1ccccc1` (stereo not shown) [Example 70, 2-(8-Hydroxy-3,4-dihydro-1H-isoquinolin-2-yl)-1-(3-phenyl-2,3-dihydro-benzo[1,4]oxazin-4-yl)-ethanone], for which, under “Table 1”, the IC50 was found to be 2140 nM.

In the case of `COc1cccc2c1CN(C(=O)CNCC(c1ccccc1)c1ccccc1)CC2` [Example 39, 2-(2,2-Diphenyl-ethylamino)-1-(8-methoxy-3,4-dihydro-1H-isoquinolin-2-yl)-ethanone], the IC50 (Table 1) turned out to be 450 nM.

Turning to `COc1cccc2c1CN(CC(=O)N1c3ccccc3Sc3ccccc31)CC2` [Compound 140, 2-(8-Methoxy-3,4-dihydro-1H-isoquinolin-2-yl)-1-phenothiazin-10-yl-ethanone], under setting [1], the IC50 stood at 2330 nM.

For the molecule `c1ccc(CN(CCN2CCc3ccccc3C2)Cc2ccccc2)cc1` [Example 47, Dibenzyl-[2-(3,4-dihydro-1H-isoquinolin-2-yl)-ethyl]-amine], the IC50 (Table 1) came out at 470 nM.

As to `CS(=O)(=O)Nc1cccc2c1CN(CC(=O)N1c3ccccc3Oc3ccccc31)C2` [Compound 210, N-[2-(2-Oxo-2-phenoxazin-10-yl-ethyl)-2,3-dihydro-1H-isoindol-4-yl]-methanesulfonamide], the 50% inhibitory concentration (IC50) under setting [1] worked out at 3460 nM.

Turning to `COc1ccc(C2COc3ccccc3N2C(=O)CN2CCc3cccc(OC)c3C2)cc1OC` (stereo not shown) [Compound 216, 1-[3-(3,4-Dimethoxy-phenyl)-2,3-dihydro-benzo[1,4]oxazin-4-yl]-2-(8-methoxy-3,4-dihydro-1H-isoquinolin-2-yl)-ethanone], the IC50 under setting [1] amounted to 4310 nM.

In the case of `O=C(CN1CCc2ccccc2C1)N(Cc1ccccc1)Cc1ccccc1` [Example 16, N,N-Dibenzyl-2-(3,4-dihydro-1H-isoquinolin-2yl)-acetamide], for the setting “Table 1”, the IC50 was 880 nM.

`COc1cc2c(cc1OC)CN(CC(=O)N1c3ccccc3[S+]([O-])c3ccccc31)CC2` [Compound 157, 2-(6,7-Dimethoxy-3,4-dihydro-1H-isoquinolin-2-yl)-1-(5-oxo-5H-5lambda*4*-phenothiazin-10-yl)-ethanone]: under setting [1], the IC50 amounted to 30000 nM.

Consider `COc1cccc2c1CN(CC(=O)NC(c1ccccc1)c1ccccn1)CC2` (stereo not shown) [Example 69, 2-(8-methoxy-3,4-dihydro-1H-isoquinolin-2-yl)-N-(phenyl-pyridin-2-yl-methyl)-acetamide], for which the IC50 (Table 1) amounted to 8960 nM.

The record behind these values is patent US20070043024A1, “Azacyclic compounds as inhibitors of sensory neurone specific channels” (priority 2003, published 2007).
